Experiments:
Format in all cases: in vivo
[1] = system: telogen cycle female C3H mice; assay: Stimulation of hair growth by topical application of a peptide-copper complex (Example 14)
Description: This example illustrates the stimulation of hair growth in warm-blooded animals by topical application of a peptide-copper complex. In this experiment, telogen cycle female C3H mice (60-65 days old) were prepared by clipping their posterior dorsal region (i.e., day 1). Topical application of peptide-copper complexes was performed twice per day (Monday-Friday) using a cotton-tipped applicator which delivered approximately 0.1 ml per treatment. The topical formulation used in this experiment contained the following components:
Topical application of the above formulation continued until the onset of follicle pigmentation, which proceeds the emergence of the hair shall. Measurement of the degree of response was performed using digital image analysis at weekly intervals, beginning at day 14. Data was expressed as the percent treatment area response using the following equation:
% treatment area=(growth area/treatment area)×100
For comparison purposes to illustrate the effect of hydrophobic amino acid residues on hair growth after topical application, AHK:Cu was compared to AHF:Cu. In this experiment, topical formulations containing AHK:Cu (1.1:1) and AHF:Cu (1.1:1) were prepared at a concentration of 0.5% and 0.1% (w/w) as indicated above. Hair growth response (i.e., "Percent Treatment Area") was determined at day 20, day 27 and at day 34.

[2] = system: C3H mice (telogen hair growth phase); assay: Stimulation of hair growth by intradermal injection of peptide-copper complexes containing D-amino acids (Example 13); details: peptide to copper 1.1:1
Description: This example illustrates the stimulation of hair growth in warm-blooded animals by intradermal injection of AHK:Cu (1.1:1) utilizing a D-amino acids inplace of the naturally occurring L-amino acid.
In this experiment, the backs of C3H mice (60 days old, telogen hair growth phase) were closely clipped on day 1 using an electric clipper. A sterile saline solution containing AHK:Cu (1.1:1), or AHK:Cu (1.1:1) containing a D-amino acid, was then injected intradermally (i.e., infiltrated under the skin) at two locations within the clipped areas of the mice. Injection at two locations provided two test locations within the clipped area of each mouse. Each injection (0.1 ml) contained either 1.2 or 1.8 μmoles per injection of peptide-copper complex in the sterile saline solution. A group of saline injected mice (0.1 ml) served as controls. Following injection of peptide copper complex, indications of hair growth were seen within 10 days. The first visual signs were a darkening of the skin in a circular region surrounding the injection site. The size of this region is generally dose dependent, increasing with an increase in dose. The 0.1 ml injections used in this experiment produced a circle of hair growth measuring approximately 0.5 cm^2 to 5 cm^2 in diameter. […]
The degree of hair growth was determined by measuring the total area of hair growth at the two injection sites.

[3] = system: C3H mice (telogen hair growth phase); assay: Stimulation of hair growth after intradermal injection of peptide-copper complexes (Example 12); details: peptide to copper 2:1, day 21; for Number of Animals Growing Hair: responders/injected mice
Description: The following example illustrates the stimulation of hair growth in warm-blooded animals after intradermal injection of representative peptide-copper complexes of this invention.
As in Example 11 above, the backs of C3H mice (60 days old, telogen hair growth phase) were closely clipped on day 1 using an electric clipper. A sterile saline solution containing the indicated peptide-copper complex was then injected intradermally (i.e., infiltrated under the skin) at two locations within the clipped areas of the mice. Injection at two locations provided two test locations within the clipped area of each mouse. Each injection (0.1 ml) contained between 0.75 to 1.5 mg of the peptide-copper complex within the sterile saline solution. A group of saline injected mice (0.1 ml) served as controls. Following injection of the peptide-copper complexes, indications of hair growth were seen within 10 days. The first visual signs were a darkening of the skin in a circular region surrounding the injection site. The size of this region is generally dose dependent, increasing with an increase in dose. The 0.1 ml injections used in this experiment produced a circle of hair growth measuring approximately 0.5 cm^2 to 5 cm^2 in diameter. Active hair growth occurred between 14-20 days following injection, with a maximum effect seen by day 29. Both the number of mice growing hair at the injection site and the diameter of the hair growth region were determined at day 21.

[4] = system: Sprague-Dawley rat pups treated with cytosine arabinoside (Ara-C); assay: Localized maintenance of hair follicle viability by intradermal injection during Ara-C chemotherapy (Example 16); details: for Degree of Alopecia (mean) at the site of injection: day 10, grade 0 normal to 4 total loss of hair
Description: The following experiment illustrates the localized maintenance of hair follicle viability (i.e., growth) by intradermal (local) injection of the peptide-copper complex AHK:Cu during treatment with the chemotherapeutic agent cytosine arabinoside (Ara-C).
In this experiment, Sprague-Dawley rat pups (age 8 days) were maintained in 5 litters (n=10-11/litter) for the duration of this study. On day 0, litters received intradermal (ID) injections of AHK:Cu (1:1) in a sterile saline solution, or a saline control (1 injection per animal, 0.05 ml per injection). Each litter contained 2 normal control animals where no AHK:Cu or Ara-C was administered (i.e., saline only). On day 1, designated animals began a series of 7 consecutive daily intraperitoneal (IP) injections with Ara-C (25 mg/kg). On day 10, all animals were evaluated for the extent of hairloss (alopecia) at the injection sites using the rating identified in Example 15.
Ara-C injections caused significant hair loss by day 5-6 in most animals. In order to evaluate the stimulatory effect of AHK:Cu, the degree of hairloss was evaluated at the injection site daily. […] Table 9 presents the results as evaluated on day 10 using the previously described rating scale, with the "Degree of Alopecia" being expressed as the average response seen at the site of injection.

[5] = topical 0.1% w/w twice per day, peptide to copper 1.1:1, day 20
[6] = topical 0.1% w/w twice per day, peptide to copper 1.1:1, day 27
[7] = topical 0.1% w/w twice per day, peptide to copper 1.1:1, day 34
[8] = topical 0.5% w/w twice per day, peptide to copper 1.1:1, day 20
[9] = topical 0.5% w/w twice per day, peptide to copper 1.1:1, day 27
[10] = topical 0.5% w/w twice per day, peptide to copper 1.1:1, day 34

Row | Substance | Percent Treatment Area (growth area/treatment area x 100) [1, 5] | Percent Treatment Area (growth area/treatment area x 100) [1, 6] | Percent Treatment Area (growth area/treatment area x 100) [1, 7] | Percent Treatment Area (growth area/treatment area x 100) [1, 8] | Percent Treatment Area (growth area/treatment area x 100) [1, 9] | Percent Treatment Area (growth area/treatment area x 100) [1, 10] | Area of Hair Growth (total area at the two injection sites) ([2]; 1.2 μmoles per injection intradermal) | Area of Hair Growth (total area at the two injection sites) ([2]; 1.8 μmoles per injection intradermal) | Area of Hair Growth ([3]; 0.75 mg/injection intradermal) | Number of Animals Growing Hair ([3]; 0.75 mg/injection intradermal) | Area of Hair Growth ([3]; 1.50 mg/injection intradermal) | Number of Animals Growing Hair ([3]; 1.50 mg/injection intradermal) | Relative hair growth activity after topical administration ([1]; AHK:Cu compared to AHF:Cu, topical) | Degree of Alopecia (mean) at the site of injection ([4]; 0.05 mg per injection, 3.5 mg/kg intradermal day 0, peptide to copper 1:1, Ara-C 25 mg/kg IP x 7 days) | Degree of Alopecia (mean) at the site of injection ([4]; 0.10 mg per injection, 7.0 mg/kg intradermal day 0, peptide to copper 1:1, Ara-C 25 mg/kg IP x 7 days) | Degree of Alopecia (mean) at the site of injection ([4]; 0.25 mg per injection, 17.5 mg/kg intradermal day 0, peptide to copper 1:1, Ara-C 25 mg/kg IP x 7 days) | Degree of Alopecia (mean) at the site of injection ([4]; 0.50 mg per injection, 35.0 mg/kg intradermal day 0, peptide to copper 1:1, Ara-C 25 mg/kg IP x 7 days) | Histology of hair follicles at the injection site ([4]; intradermal, with Ara-C, follicles away from the injection dystrophic and non-functional) | Radius of retention of hair around the injection site ([4]; intradermal, with Ara-C, most notably in the 0.1 to 0.5 mg dose groups)
1 | alanyl-histidyl-phenylalanine:copper [AHF:Cu] | 0.00% | 0.00% | 12.91 ± 12.91% | 55.05 ± 17.44% | 100% | 100% | – | – | – | – | – | – | – | – | – | – | – | – | –
2 | alanyl-histidyl-lysine:copper [AHK:Cu] | 1.29 ± 1.29% | 23.07 ± 18.84% | 90.14 ± 2.96% | 75.87 ± 7.64% | 100% | 100% | 3.07 ± 0.76 | 3.24 ± 1.17 | < 1 cm diameter | 1/4 | > 1 cm diameter | 4/4 | more active in stimulating hair growth | 3.25 | 2.38 | 1.44 | 1.11 | normal appearing and functioning anagen hair follicles | 0.25 cm

Source: patent publication US5538945A, “Stimulation of hair growth by peptide copper complexes” (ProCyte Corporation, priority 1994, dated 1996)
